Structures can show the parent of a compound that is named as a salt. Each block holds one compound with its values, some of them ahead of it.
Legend:
β-CN [1] = biological target: T1, β-CN (Bos taurus, UniProt P02666); test: Trp 143 fluorescence quenching of β-CN by drug; format: binding, bovine; conditions: for Kd: Trp 143 of β-CN quenched by drug, 1 mg/ml β-CN in PBS pH 7.0, emission 332 nm, read-out: Calculated Kd
T1 construct: β-CN from bovine milk (C6905, purity 90%); purchased Sigma-Aldrich Israel Ltd. C6905; host or cells: bovine milk
T1 sequence (P02666 16-224): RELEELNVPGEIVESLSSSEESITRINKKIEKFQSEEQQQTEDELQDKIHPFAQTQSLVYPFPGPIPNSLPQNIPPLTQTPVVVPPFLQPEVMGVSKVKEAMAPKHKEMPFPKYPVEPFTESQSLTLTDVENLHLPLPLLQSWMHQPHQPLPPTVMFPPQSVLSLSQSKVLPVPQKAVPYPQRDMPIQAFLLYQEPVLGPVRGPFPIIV
Procedure: Tryptophan (Trp) Fluorescence:
Trp 143 is located in the main hydrophobic domain of β-CN. Quenching of protein fluorescence due to energy transfer from this Trp residue to a bound ligand serves to determine the binding affinity.
β-CN-drug interaction was studied by monitoring the changes in the Trp fluorescence emission of β-CN upon addition of the drug. Trp fluorescence was determined using an excitation at 287 nm and emission was detected at 332 nm, with slit widths of 1 nm, using the Fluorolog 3-22 spectrofluoreineter. Intrinsic fluorescence of the Trp residues of β-CN was measured before and after addition of different amounts of each drug ranging between drug: β-CN molar ratio of 0.2:1 to 12:1 at 1 mg/ml β-CN. Changes in Trp fluorescence were used to evaluate the binding of the drug to β-CN. The apparent dissociation constant and the number of drug molecules that are involved in binding of one β-CN molecule were calculated from plots of the fluorescence intensity at 332 nm, expressed as the percentage of the fluorescence of the drug-free β-CN vs. the added drug concentration. The data was analyzed using Matlab (MathWorks), by means of the following equations: […]
where F is the fluorescence intensity at a given added ligand (drug) concentration; F0 the fluorescence intensity at the beginning of the titration; F1 the fluorescence at the end of the titration; [PF] the concentration of the free β-CN; [LF] the concentration of the free ligand, drug; [PL] the concentration of the β-CN-drug complex; Kd and Ka are the dissociation and association constants respectively (Christiaenset al. 2002 European Journal of Biochemistry 269 [12]:2918-2926).
Emission spectra of pure 1 mg/ml β-CN vs. those of drug encapsulated in 1mg/ml at 4:1 drug: β-CN molar ratio, were collected at Trp excitation wavelength 287 nm, using the Fluorolog 3-22 spectrofluorometer.

[2] = Visual appearance of drug solution with and without β-CN; format: physicochemical
From the text: In order to evaluate the visual appearance of the tested drug when encapsulated within the β-CN system as compared to the non-encapsulated drug solubilized at a similar concentration, in PBS and DMSO (i.e. without the addition of β-CN), photographs were taken of both solutions and their appearance was compared.

[3] = cited from earlier work
β-CN [4] = biological target: T1, β-CN; test: Mitoxantrone fluorescence quenching by β-CN; format: binding, bovine; conditions: 42 μM mitoxantrone
Procedure: The β-CN-mitoxantrone interaction was further studied by monitoring the changes in the mitoxantrone fluorescence emission upon addition of β-CN. For this purpose a 3-D fluorescence spectra analysis of mitoxantrone was performed using the Fluorolog 3-22. Mitoxantrone fluorescence emission was measured using 609 nm and 675 nm excitation and emission, respectively, and slit widths of 1 nm. Intrinsic fluorescence of 42 μM mitoxantrone was measured before and after addition of different amounts of β-CN. The β-CN concentration range was 0.1-3.8 mg/ml. The apparent dissociation constant and the number of β-CN molecules bound per mitoxantrone molecule were calculated from plots of the fluorescence intensity at 675 nm expressed as the percentage of the fluorescence of the β-CN-free mitoxantrone vs. the added β-CN concentration. Data were analyzed as detailed herein above for Trp quenching.

Zeta potential analysis = format: physicochemical; conditions: concentration range studied; PBS pH 7.0
Procedure: Particle size distribution, mean Gaussian diameter, and zeta potential were determined by a combined dynamic light scattering (DLS) and zeta potential analyzer (NICOMP 380, Particle Sizing Systems (Agilent Technologies, Inc.), Santa Barbara, Calif., USA) at 25° C.
Zeta potential was measured in PBS solutions without NaCl, under a 3 V/cm e-field, using phase analysis mode. The zeta potential was calculated from the electrophoretic mobility (EM) using the Smoluchowski model (which is a reasonable approximation given that the radius of the particles (a) was around 125 nm, and the ionic strength during the EM measurement was calculated to be about 50 mM, i.e. the Debye length (κ^−1) was around 1.4 nm, so that the product κ^−1a=92>>1).

[5] = 504 μM drug in PBS with 4.55-5.6% DMSO

change of β-CN Trp-143 emission upon encapsulation (β-CN [1]; 4:1 Paclitaxel:β-CN, 1 mg/ml β-CN, excitation 287 nm): decrease in emission intensity | visual appearance, without β-CN ([2]; 84 μM drug in PBS and 0.8% DMSO): turbid, unstable and aggregated system
Compound: CC(=O)O[C@H]1C(=O)[C@@]2(C)[C@H]([C@H](OC(=O)c3ccccc3)[C@]3(O)C[C@H](OC(=O)[C@H](O)[C@@H](NC(=O)c4ccccc4)c4ccccc4)C(C)=C1C3(C)C)[C@]1(OC(C)=O)CO[C@@H]1C[C@@H]2O [Paclitaxel, paclitaxel]

visual appearance, without β-CN [2, 5]: turbid, unstable and aggregated solution
Compound: CCc1c2c(nc3ccc(OC(=O)N4CCC(N5CCCCC5)CC4)cc13)-c1cc3c(c(=O)n1C2)COC(=O)[C@]3(O)CC [irinotecan, irinotecan hydrochloride trihydrate]
pKa [3]: 8.1

More lines, now with the values behind:

Compound: vinblastine sulfate salt
Kd (β-CN [1]; excitation 287 nm, model fit): 50.9 µM | n (moles of quencher per moles of fluorophore) (β-CN [1]; drug molecules per β-CN molecule, Trp quenching, model fit): 5.25±0.57 | initial overall Trp emission intensity quenched (β-CN [1]; vinblastine:β-CN 0.2:1 to 10:1 at 1 mg/ml β-CN): About 80% | pKa [3]: 5.5

Compound: O=C1c2c(O)ccc(O)c2C(=O)c2c(NCCNCCO)ccc(NCCNCCO)c21 [mitoxantrone, Mitoxantrone dihydrochloride]
Kd (β-CN [1]; excitation 287 nm, model fit): 8.43 µM | over-all Trp emission after quenching, of its initial intensity (β-CN [1]; plateau at mitoxantrone:β-CN 6:1, 1 mg/ml β-CN): 20% | over-all mitoxantrone emission quenched by β-CN, up to % of its initial intensity (β-CN [4]; plateau at 0.7 mg/ml β-CN): up to 65% | Kd (β-CN [4]; mitoxantrone fluorescence quenched by β-CN, β-CN 0.1-3.8 mg/ml, excitation 609 nm, emission 675 nm, model fit, read-out: Calculated Kd): 0.726 µM | Log P [3]: higher than 2

Compound: CC(=O)O[C@@]12CO[C@@H]1C[C@H](O)[C@@]1(C)C(=O)[C@H](O)C3=C(C)[C@@H](OC(=O)[C@H](O)[C@@H](NC(=O)OC(C)(C)C)c4ccccc4)C[C@@](O)([C@@H](OC(=O)c4ccccc4)[C@H]21)C3(C)C [Docetaxel, Docetaxel trihydrate]
zeta potential of drug in PBS without β-CN (Zeta potential analysis): around −30 mV | visual appearance, without β-CN [2, 5]: turbid, unstable and aggregated solution

— patent publication US20110045092A1, “CASEIN […] ENCAPSULATING […] ACTIVE AGENTS AND USES THEREOF” (priority 2008, published 2011)
